In ChEMBL document CHEMBL3745649, “Structure-activity relationship study of anticancer thymidine-quinoxaline conjugates under the low radiance of long wavelength ultraviolet light for photodynamic therapy” (Eur J Med Chem, 2016):
Activity calls are given as the source filed them. The rule behind the calls is not given here.

What was measured:
Bel-7402 = assay: Photocytotoxicity against human Bel7402 cells assessed as production of reactive oxygen stress at 5 uM preincubated for 5 hrs followed by UVA-1 irradiation at 0.85 mW/cm'2 for 20 mins measured for 10 mins by DCFH-DA based fluorescence microscopic analysis; assay type: functional, cell-based
[1] = Photocytotoxicity against human Bel7402 cells assessed as cell viability preincubated for 5 hrs followed by UVA-1 irradiation at 0.85 mW/cm'2 for 20 mins measured after 48 hrs by CCK8 assay; assay type: functional, cell-based; conditions: Bel-7402, light or radiation study
[2] = Photocytotoxicity against human PANC1 cells assessed as cell viability preincubated for 5 hrs followed by UVA-1 irradiation at 0.85 mW/cm'2 for 20 mins measured after 48 hrs by CCK8 assay; assay type: functional, cell-based; conditions: PANC-1, light or radiation study
PANC-1 [3] = assay: Antioxidant activity in human PANC1 cells assessed as reduction of reactive oxygen stress level at 5 uM after 15 mins by DCFH-DA based fluorescence assay in absence of H2O2; assay type: functional, cell-based
PANC-1 [4] = assay: Photocytotoxicity against human PANC1 cells assessed as production of reactive oxygen stress at 5 uM preincubated for 5 hrs followed by UVA-1 irradiation at 0.85 mW/cm'2 for 20 mins measured for 10 mins by DCFH-DA based fluorescence microscopic analysis; assay type: functional, cell-based
[5] = Dark toxicity against human Bel7402 cells assessed as cell viability after 53 hrs by CCK8 assay in absence of UVA-1 irradiation; assay type: cell-based, Bel-7402
PANC-1 [6] = assay: Antioxidant activity in human PANC1 cells assessed as reduction of H2O2-induced reactive oxygen stress level at 5 uM after 15 mins by DCFH-DA based fluorescence assay; assay type: functional, cell-based
[7] = Dark toxicity against human PANC1 cells assessed as cell viability after 53 hrs by CCK8 assay in absence of UVA-1 irradiation; assay type: cell-based, PANC-1
[8] = Cytotoxicity against human Bel7402 cells assessed as viable cells at 50 uM; assay type: functional; conditions: Bel-7402, read-out: Activity
[9] = Cytotoxicity against human PANC1 cells assessed as viable cells at 50 uM; assay type: functional; conditions: PANC-1, read-out: Activity
[10] = Photocytotoxicity against human Bel7402 cells assessed as cell viability preincubated for 5 hrs with cells followed by UVA-1 irradiation at 3.0 mW/cm'2 for 20 mins measured after 48 hrs by CCK8 assay; assay type: functional, cell-based; conditions: Bel-7402, light or radiation study
[11] = Photocytotoxicity against human PANC1 cells assessed as cell viability preincubated for 5 hrs with cells followed by UVA-1 irradiation at 3.0 mW/cm'2 for 20 mins measured after 48 hrs by CCK8 assay; assay type: functional, cell-based; conditions: PANC-1, light or radiation study
[12] = Cytotoxicity against human Hep3B cells assessed as cell viability after 72 hrs by MTT assay; assay type: functional, cell-based, Hep 3B2
H22 = assay: Cytotoxicity against […] cells assessed as cell viability after 72 hrs by MTT assay; assay type: functional, cell-based; conditions: Mus musculus, H22, 72 h
C6 = assay: Cytotoxicity against rat C6 cells assessed as cell viability after 72 hrs by MTT assay; assay type: functional, cell-based; conditions: C6, 72 h
HepG2 = assay: Cytotoxicity against human HepG2 cells assessed as cell viability after 72 hrs by MTT assay; assay type: functional, cell-based; conditions: HepG2, 72 h
MCF7 = assay: Cytotoxicity against human MCF7 cells assessed as cell viability after 72 hrs by MTT assay; assay type: functional, cell-based; conditions: MCF7, 72 h

CC1(C)CCC[C@]2(C)c3ccc(OCCCCCC(=O)NCc4cn([C@@H]5O[C@H](CO)[C@H](O)[C@H](O)[C@H]5O)nn4)cc3-c3nc4ccccc4nc3[C@H]12
Activity (Bel-7402): inactive
EC50 [1]: > 20 µM
EC50 [2]: > 20 µM
Activity (PANC-1 [3]): Active
Activity (PANC-1 [4]): inactive
EC50 at 53 h [5]: > 50 µM
Activity (PANC-1 [6]): Active
EC50 at 53 h [7]: > 50 µM

Cc1cn([C@H]2C[C@H](n3cc(CNC(=O)CCCCCOc4ccc5c(c4)-c4nc6ccc(F)cc6nc4[C@@H]4C(C)(C)CCC[C@]54C)nn3)[C@@H](CO)O2)c(=O)[nH]c1=O
EC50 [1]: 7.4 µM
EC50 [2]: 13.5 µM
EC50 at 53 h [5]: 10 µM
EC50 at 53 h [7]: ≥ 50 µM

[N-]=[N+]=N[C@@H]1O[C@H](CO)[C@H](O)[C@H](O)[C@H]1O
Activity (PANC-1 [6]): Active

Nc1ccn([C@@H]2O[C@H](CO)[C@@H](O)C2(F)F)c(=O)n1 [GEMCITABINE]
viability at 50 µM [8]: < 20%
viability at 50 µM [9]: < 20%

CCN(CC)CCNC(=O)c1c(C)[nH]c(/C=C2\C(=O)Nc3ccc(F)cc32)c1C [SUNITINIB]
EC50 [10]: 11 µM
EC50 [11]: 13 µM

Cc1cn([C@H]2C[C@H](n3cc(CNC(=O)CCCCCCCOc4ccc5c(c4)-c4nc6ccccc6nc4[C@H]4C(C)(C)CCC[C@]54C)nn3)[C@@H](CO)O2)c(=O)[nH]c1=O
EC50 [1]: 5.6 µM
EC50 [2]: 8.1 µM
EC50 at 53 h [5]: 10 µM
EC50 at 53 h [7]: > 50 µM

Cc1cn([C@H]2C[C@H](n3cc(CNC(=O)CCCOc4ccc5c(c4)-c4nc6ccccc6nc4[C@@H]4C(C)(C)CCC[C@]54C)nn3)[C@@H](CO)O2)c(=O)[nH]c1=O
EC50 [1]: 10.9 µM
EC50 [2]: > 10 µM
EC50 at 53 h [5]: > 20 µM
EC50 at 53 h [7]: 20 µM

Cc1cn([C@H]2C[C@H](n3cc(CNC(=O)CCCCCOc4ccc5c(c4)-c4nc6cc(Br)c(Br)cc6nc4[C@@H]4C(C)(C)CCC[C@]54C)nn3)[C@@H](CO)O2)c(=O)[nH]c1=O
EC50 [1]: 2.1 µM
EC50 [2]: 5.8 µM
EC50 at 53 h [5]: > 20 µM
EC50 at 53 h [7]: ≥ 50 µM

Cc1cn([C@H]2C[C@H](n3cc(CNC(=O)COc4ccc5c(c4)-c4nc6ccccc6nc4[C@@H]4C(C)(C)CCC[C@]54C)nn3)[C@@H](CO)O2)c(=O)[nH]c1=O
EC50 [1]: 12.5 µM
EC50 [2]: > 20 µM
EC50 at 53 h [5]: > 20 µM
EC50 at 53 h [7]: 20 µM

Cc1cn([C@H]2C[C@H](n3cc(CNC(=O)CCCCCCCOc4ccc5c(c4)-c4nc6ccccc6nc4[C@@H]4C(C)(C)CCC[C@]54C)nn3)[C@@H](CO)O2)c(=O)[nH]c1=O
EC50 [1]: 4 µM
EC50 [2]: 5.7 µM
EC50 at 53 h [5]: 10 µM
EC50 at 53 h [7]: ≥ 50 µM

Cc1cn([C@H]2C[C@H](n3cc(CNC(=O)CCCCCOc4ccc5c(c4)C(=O)C(=O)[C@@H]4C(C)(C)CCC[C@]54C)nn3)[C@@H](CO)O2)c(=O)[nH]c1=O
EC50 [1]: > 20 µM
EC50 [2]: > 20 µM
EC50 at 53 h [5]: > 50 µM
EC50 at 53 h [7]: > 50 µM

Cc1cn([C@H]2C[C@H](n3cc(CCCC(=O)Nc4cc5ccc6cccc7ccc(c4)c5c67)nn3)[C@@H](CO)O2)c(=O)[nH]c1=O
EC50 [1]: > 20 µM
EC50 [2]: > 20 µM
EC50 at 53 h [5]: > 50 µM
EC50 at 53 h [7]: > 50 µM

Cc1cn([C@H]2C[C@H](n3cc(CNC(=O)CCCCCOc4ccc5c(c4)-c4nc6cc(F)ccc6nc4[C@@H]4C(C)(C)CCC[C@]54C)nn3)[C@@H](CO)O2)c(=O)[nH]c1=O
EC50 [1]: 4 µM
EC50 [2]: 7 µM
EC50 at 53 h [5]: 10 µM
EC50 at 53 h [7]: 20 µM

Cc1cn([C@H]2C[C@H](n3cc(CNC(=O)CCCCCOc4ccc5c(c4)-c4nc6ccccc6nc4[C@@H]4C(C)(C)CCC[C@]54C)nn3)[C@@H](CO)O2)c(=O)[nH]c1=O
Activity (Bel-7402): Active
EC50 [1]: 4.2 µM
EC50 [12]: 6 µM
EC50 (H22): 6 µM
EC50 [2]: 9.8 µM
EC50 (C6): 6 µM
EC50 (HepG2): 6 µM
Activity (PANC-1 [4]): Active
EC50 at 53 h [5]: 10 µM
EC50 (MCF7): 6 µM
Activity (PANC-1 [6]): Active
EC50 at 53 h [7]: ≥ 50 µM

Cc1cn([C@H]2C[C@H](n3cc(CNC(=O)CCCCCOc4ccc5c(c4)-c4nc6ccccc6nc4[C@H]4C(C)(C)CCC[C@]54C)nn3)[C@@H](CO)O2)c(=O)[nH]c1=O
EC50 [1]: 5.1 µM
EC50 [2]: 11.3 µM
EC50 at 53 h [5]: > 20 µM
EC50 at 53 h [7]: > 50 µM
